From patent publication US5475000A, “3-(substituted tetrazolyl)-4-oxo-4H-pyrido-[1,2-a]pyrimidines, salts thereof, pharmaceutical compositions containing them and process for preparing same” (Chinoin Gyogyszer-es Vegyeszeti Termekek Gyara Rt., priority 1991, dated 1995)
Structures can show the parent of a compound that is named as a salt.

Legend:
[1] = system: gastrointestinal ulceration induced by indomethacin; experiment: Gastrointestinal ulceration induced by indomethacin (known compound); type: in vivo
[2] = system: indomethacin-induced gastric mucosa lesion; experiment: Inhibition of the indomethacin-induced gastric mucosa lesion, p.o.; type: in vivo; conditions: Rattus norvegicus, po, rats, read-out: ID50 p.o. mg/kg, indomethacin-induced gastric mucosa lesion
Description: The effect of the compounds to the invention, given as examples, against the indomethacin-induced ulcer [Arch. Int.
Inhibition of the indomethacin-induced gastric mucosa

[3] = system: indomethacin-induced duodenal ulcer; experiment: Indomethacin-induced duodenal/small intestine ulcer formation (method of Tsuromi), with lethality caused by indomethacin; type: in vivo, rat; conditions: 50 mg/kg on 4 consecutive days, 15 mg/kg oral indomethacin on 2nd day, vs control
Experimental: According to the method of Tsuromi (J. Pharm. Dyn. 1980, 3, 659) the compound was administered to the rats in a dose of 50 mg/kg on 4 consecutive days. On the 2nd day a 15 mg/kg oral dose of indomethacin was given to the rats. The ulcer formation was determined in the small intestine on the 3rd day following the administration of the indomethacin. In comparison to the control, the compound according to the invention exerted an inhibition of 20% on the ulcer formation and also an inhibition of 100% on the lethality caused by indomethacin.

[4] = system: gastric mucosa lesion induced by 96% ethanol containing hydrochloric acid; experiment: Protective action against the gastric mucosa lesion induced by 96% ethanol containing hydrochloric acid (acid-ethanol gastric ulcer), p.o.; type: in vivo; conditions: Rattus norvegicus, po, rats, 0.5 ml of 1:0.02 mixture of 96% ethanol and hydrochloric acid, read-out: ID50 p.o. mg/kg, gastric mucosa lesion induced by 96% ethanol containing hydrochloric acid
Experimental: As an example, the protective action of the compounds according to the invention against gastric ulcer induced by 0.5 ml of a 1:0.02 volume ratio mixture of 96% ethanol and hydrochloric acid is illustrated in Table 1. [for the method, see: Gastroenterology 77, 433 (1979)]
Protective action in rats of the compounds according to the
invention against the gastric mucosa lesion induced by 96%
ethanol containing hydrochloric acid

Row | SMILES | prevention of the gastrointestinal ulceration induced by indomethacin [1] | ED50 [2] | inhibition on the ulcer formation in the small intestine ([3]; determined on 3rd day following indomethacin) | inhibition on the lethality caused by indomethacin [3] | ED50 [4]
1 | Cc1cccn2c(=O)c(-c3nn[nH]n3)cnc12 [9-methyl-3-(5-tetrazolyl)-4-oxo-4-H-pyrido[1,2-a]pyrimidine potassium salt] | did not prevent |  |  |  | 
2 | CCCn1nnc(-c2cnc3c(C)cccn3c2=O)n1 [3-(2-propyl-2H-tetrazol-5-yl)-9-methyl-4-oxo-4H-pyrido[1,2-a]pyrimidine] |  | 5.5 mg/kg | 20% | 100% | 0.05 mg/kg
3 | Cc1cccn2c(=O)c(-c3nnn(C(C)C)n3)cnc12 [3-(2-isopropyl-2H-tetrazol-5-yl)-9-methyl-4-oxo-4H-pyrido[1,2-a]pyrimidine] |  | 2.6 mg/kg |  |  | 0.23 mg/kg
4 | CCCCn1nnc(-c2cnc3c(C)cccn3c2=O)n1 [3-(2-butyl-2H-tetrazol-5-yl)-9-methyl-4-oxo-4H-pyrido[1,2-a]pyrimidine] |  |  |  |  | 2 mg/kg
5 | CC(C)n1nnc(-c2cnc3ccccn3c2=O)n1 [3-(2-isopropyl-2H-tetrazol-5-yl)-4-oxo-4H-pyrido[1,2-a]pyrimidine] |  | 4 mg/kg |  |  | 2.2 mg/kg
6 | Cc1cccn2c(=O)c(-c3nnnn3C(C)C)cnc12 [3-(1-isopropyl-1H-tetrazol-5-yl)-9-methyl-4-oxo-4H-pyrido[1,2-a]pyrimidine] |  |  |  |  | 0.34 mg/kg
7 | C=CCn1nnc(-c2cnc3c(C)cccn3c2=O)n1 [3-(2-allyl-2H-tetrazol-5-yl)-9-methyl-4-oxo-4H-pyrido[1,2-a]pyrimidine] |  | 2.5 mg/kg |  |  | 2.9 mg/kg
